The record followed here is PubChem BioAssay (NCI).

Some test systems named below: DU-145 prostate; K-562 leukemia; 786-0 renal; EKVX NSCLC; T-47D breast; CAKI-1 renal; NCI-H460 lung; NCI-H226 lung; PC-3 prostate; U251 CNS.
What all share (assay): inhibition of tumour cell growth, NCI panel, 48 h

The structures appear in SMILES notation.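 Growth conditions: 96-well plates. Treatment: test compound, 48 hours, 5 concentrations. Analysis: linear interpolation between bracketing concentrations; unreached endpoints set to highest concentration. TGI: concentration producing complete growth inhibition.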

Turning to `COc1cc2c(c(O)c1OC)C(O)C1CCC(=O)N1C2c1ccc2c(c1)OCO2` (stereo not given), the TGI with DU-145 prostate, in the assay with K-562 leukemia, in the assay with 786-0 renal, with EKVX NSCLC, with T-47D breast and with CAKI-1 renal was more than 100 µM each time. Also, the TGI in the assay on NCI-H460 lung, in the assay with NCI-H226 lung, in the assay with PC-3 prostate and in the assay with U251 CNS was more than 100 µM each time.
In the case of `CCOC(=O)c1cccc(N=NNc2cccc(C(=O)OCC)c2)c1`, the TGI is more than 100 µM with DU-145 prostate; more than 100 µM in the assay with K-562 leukemia; 42.6 µM in the assay with 786-0 renal; more than 100 µM with EKVX NSCLC; more than 100 µM in the assay on T-47D breast; more than 100 µM with CAKI-1 renal. The TGI in the assay with NCI-H460 lung was more than 100 µM; in the assay with NCI-H226 lung, more than 100 µM; with PC-3 prostate, more than 100 µM; in the assay with U251 CNS it was 46.6 µM.
Take `CC(C)=CC(=O)c1[nH]c2ccccc2c1CC(=O)NCCc1cnc[nH]1`: the TGI in the assay on DU-145 prostate, in the assay with K-562 leukemia, with 786-0 renal, with EKVX NSCLC, in the assay with T-47D breast and in the assay with CAKI-1 renal was more than 100 µM each time. Also, the TGI with NCI-H460 lung, in the assay with NCI-H226 lung, in the assay with PC-3 prostate and with U251 CNS was more than 100 µM each time.
As for `NS(=O)(=O)c1ccc(Nc2c3ccccc3nc3c(C(=O)NC(CO)(CO)CO)cccc23)cc1`, the TGI is 0.812 µM in the assay with DU-145 prostate; 0.642 µM in the assay with K-562 leukemia; 0.0514 µM in the assay on 786-0 renal; more than 1 µM in the assay on EKVX NSCLC; more than 1 µM in the assay on T-47D breast; 0.525 µM in the assay on CAKI-1 renal. For the same compound, the TGI came out at 0.248 µM in the assay with NCI-H460 lung, 0.315 µM in the assay on NCI-H226 lung, 0.814 µM with PC-3 prostate and 0.457 µM in the assay with U251 CNS.
With `CSC(SC)=C(C#N)C(=O)Nc1ccc(Cl)cc1`, the TGI in the assay with DU-145 prostate was more than 100 µM; in the assay with K-562 leukemia it was more than 100 µM; with 786-0 renal it was more than 100 µM; in the assay with EKVX NSCLC, more than 100 µM; in the assay with T-47D breast it was 85.3 µM; in the assay on CAKI-1 renal it was 78.9 µM. Also, the TGI in the assay on NCI-H460 lung is more than 100 µM; in the assay with NCI-H226 lung, 85.9 µM; with PC-3 prostate, more than 100 µM; with U251 CNS, more than 100 µM.
On to `CCC(CCCC[C@H]1CC[C@@H]2CC(=O)C[C@H]12)OC` (stereo not given in full), for which the TGI with DU-145 prostate, in the assay on K-562 leukemia, in the assay on 786-0 renal, with EKVX NSCLC, with T-47D breast and in the assay with CAKI-1 renal was more than 100 µM throughout. The TGI with NCI-H460 lung, in the assay with NCI-H226 lung, in the assay with PC-3 prostate and in the assay with U251 CNS was more than 100 µM throughout.
`Cc1ccc(NC(c2ccccc2)P(=O)(c2ccccc2)c2ccccc2)cc1` (stereo not given): the TGI in the assay with DU-145 prostate, in the assay with K-562 leukemia, with 786-0 renal, with EKVX NSCLC, in the assay on T-47D breast and in the assay with CAKI-1 renal was more than 100 µM each time. The TGI in the assay on NCI-H460 lung, in the assay on NCI-H226 lung, in the assay with PC-3 prostate and in the assay on U251 CNS was more than 100 µM each time.
`O=c1[nH]nc(-c2cccc([N+](=O)[O-])c2)[nH]1`: the TGI in the assay on DU-145 prostate, in the assay on K-562 leukemia, in the assay on 786-0 renal, in the assay with EKVX NSCLC, in the assay with T-47D breast and in the assay on CAKI-1 renal was more than 100 µM each time. For the same compound, the TGI in the assay with NCI-H460 lung, with NCI-H226 lung, in the assay with PC-3 prostate and in the assay on U251 CNS was more than 100 µM throughout.
`C1CCC(CC2CCC(NC3=NCCO3)CC2)CC1` (stereo not given): the TGI in the assay on DU-145 prostate is 94.9 µM; in the assay on K-562 leukemia, 32.9 µM; in the assay with 786-0 renal, 29.2 µM; in the assay on EKVX NSCLC it was 54.4 µM; in the assay on T-47D breast it was 54.3 µM; in the assay on CAKI-1 renal, 50.7 µM. Moreover, the TGI with NCI-H460 lung amounted to 37.1 µM; in the assay with NCI-H226 lung it was 34.3 µM; with PC-3 prostate, 31.7 µM; in the assay with U251 CNS, 33.3 µM.
As to `COC(=O)[C@@H]1CN(C(=O)Cc2ccccc2)C(=O)N1`, the TGI in the assay on DU-145 prostate, in the assay on K-562 leukemia, in the assay on 786-0 renal, with EKVX NSCLC, in the assay on T-47D breast and with CAKI-1 renal was more than 100 µM each time. The TGI with NCI-H460 lung, with NCI-H226 lung, with PC-3 prostate and in the assay on U251 CNS was more than 100 µM in each case.
`O=C(OC[C@H]1C[C@H]2C(=O)OCCC[C@H]2O1)c1ccccc1`: the TGI in the assay on DU-145 prostate, in the assay with K-562 leukemia, in the assay with 786-0 renal, with EKVX NSCLC, with T-47D breast and in the assay with CAKI-1 renal was more than 100 µM each time. Besides, the TGI in the assay on NCI-H460 lung, in the assay with NCI-H226 lung, in the assay with PC-3 prostate and in the assay on U251 CNS was more than 100 µM in each case.
With `Clc1ccc(Cc2nc3cc4ccccc4cc3[nH]2)cc1Cl`, the TGI is 45.7 µM in the assay with DU-145 prostate; 83 µM in the assay on K-562 leukemia; more than 100 µM in the assay with 786-0 renal; 78.2 µM with EKVX NSCLC; 39.7 µM in the assay with T-47D breast; 43.5 µM in the assay with CAKI-1 renal. Further, the TGI in the assay with NCI-H460 lung was more than 100 µM; with NCI-H226 lung it was 78 µM; in the assay with PC-3 prostate, 43.4 µM; in the assay on U251 CNS it was 78.3 µM.
Turning to `Cc1n[nH]c(=O)c2c3c([nH]c12)-c1ccccc1C3`, the TGI in the assay with DU-145 prostate, in the assay on K-562 leukemia, in the assay with 786-0 renal, with EKVX NSCLC, with T-47D breast and in the assay on CAKI-1 renal was more than 100 µM in each case. The TGI with NCI-H460 lung, in the assay with NCI-H226 lung, in the assay with PC-3 prostate and with U251 CNS was more than 100 µM each time.
Consider `CCc1nnc2sc(-c3ccc(-c4ccccc4[N+](=O)[O-])o3)nn12`, for which the TGI in the assay on DU-145 prostate, with K-562 leukemia, in the assay on 786-0 renal, in the assay with EKVX NSCLC, with T-47D breast and in the assay with CAKI-1 renal was more than 100 µM each time. Also, the TGI with NCI-H460 lung is more than 100 µM; in the assay on NCI-H226 lung it was 44 µM; in the assay on PC-3 prostate, more than 100 µM; with U251 CNS, more than 100 µM.
For the compound `N#CCCN(C(=O)Nc1ccc(NC(=O)N(CCC#N)c2ccccc2)cc1)c1ccccc1`, the TGI with DU-145 prostate, in the assay with K-562 leukemia, in the assay with 786-0 renal, with EKVX NSCLC, in the assay with T-47D breast and with CAKI-1 renal was more than 100 µM in each case. Further, the TGI in the assay on NCI-H460 lung, with NCI-H226 lung, in the assay with PC-3 prostate and in the assay on U251 CNS was more than 100 µM in each case.
Take `Cc1[nH]c2c(C)c3c([nH]c4ccc(Cl)cc43)c(C)c2c(=O)c1C`: the TGI is more than 100 µM with DU-145 prostate; more than 100 µM in the assay on K-562 leukemia; 33 µM in the assay with 786-0 renal; more than 100 µM with EKVX NSCLC; 16.8 µM in the assay on T-47D breast; 40.2 µM in the assay on CAKI-1 renal. Also, the TGI stood at 13.5 µM with NCI-H460 lung, 24.2 µM in the assay with NCI-H226 lung, 22.4 µM with PC-3 prostate and 23.3 µM in the assay with U251 CNS.
`CC1(C)OCC(/C=C\C(O)CC2(C)OCCO2)CO1` (stereo not given): the TGI with DU-145 prostate, in the assay with K-562 leukemia, in the assay with 786-0 renal, in the assay on EKVX NSCLC, in the assay on T-47D breast and with CAKI-1 renal was more than 100 µM in each case. In addition, the TGI with NCI-H460 lung, with NCI-H226 lung, in the assay on PC-3 prostate and with U251 CNS was more than 100 µM each time.
For the compound `COc1ccc(Cl)cc1NC(=O)O/N=C(\Cl)C(C)C`, the TGI in the assay with DU-145 prostate was 37.4 µM; in the assay on K-562 leukemia, 7.59 µM; with 786-0 renal it was 27.1 µM; with EKVX NSCLC, 13.5 µM; in the assay with T-47D breast, 16.8 µM; with CAKI-1 renal it was 3.24 µM. Moreover, the TGI in the assay on NCI-H460 lung was 37.6 µM; with NCI-H226 lung, 33.2 µM; in the assay with PC-3 prostate, 32.3 µM; in the assay on U251 CNS, more than 59.4 µM.
As to `CCOC(=O)c1c(N2CCN(C)CC2)[nH]c(=O)c(C(c2c(Cl)cccc2Cl)c2c(O)c(C(=O)OCC)c(N3CCN(C)CC3)[nH]c2=O)c1O`, the TGI with DU-145 prostate was found to be 38.3 µM; in the assay on K-562 leukemia, 86.8 µM; in the assay with 786-0 renal, 87 µM; in the assay on EKVX NSCLC it was 34.2 µM; with T-47D breast it was 45.8 µM; in the assay with CAKI-1 renal, 52.7 µM. Moreover, the TGI is 77 µM in the assay on NCI-H460 lung, 52.6 µM in the assay on NCI-H226 lung, 47.5 µM with PC-3 prostate and 50 µM in the assay with U251 CNS.
Take `CCCCCCCC(=O)NC(C)(C)C(=O)NCC(=O)NC(CC(C)C)C(=O)NC(C)(C)C(=O)NCC(=O)NCC(=O)NC(CC(C)C)C(=O)NC(C)(C)C(=O)NCC(=O)NC(C(=O)NC(CO)CC(C)C)C(C)CC` (stereo not given): the TGI was 9.53 µM with DU-145 prostate; 9.11 µM in the assay with K-562 leukemia; 8.11 µM in the assay on 786-0 renal; 6.91 µM in the assay on EKVX NSCLC; 7.23 µM in the assay on T-47D breast; 8.07 µM with CAKI-1 renal. In addition, the TGI in the assay on NCI-H460 lung is 8.11 µM; with NCI-H226 lung, 8.48 µM; with PC-3 prostate it was 7.08 µM; in the assay on U251 CNS, 5.33 µM.
For the compound `C=CCCCCCCCCCOC1C=CC(O)C(CO)O1` (stereo not given), the TGI in the assay on DU-145 prostate is more than 100 µM; in the assay with K-562 leukemia, 53.3 µM; in the assay with 786-0 renal it was more than 100 µM; in the assay on EKVX NSCLC, more than 100 µM; in the assay with T-47D breast, more than 100 µM; in the assay with CAKI-1 renal, more than 100 µM. Moreover, the TGI is 63.7 µM in the assay with NCI-H460 lung, more than 100 µM with NCI-H226 lung, 86.4 µM in the assay with PC-3 prostate and more than 100 µM in the assay with U251 CNS.
Take `COc1ccc(/C=N/n2c(-c3ccccc3)n[nH]c2=O)c(OC)c1`: the TGI with DU-145 prostate, in the assay with K-562 leukemia, with 786-0 renal, in the assay with EKVX NSCLC, with T-47D breast and with CAKI-1 renal was more than 100 µM throughout. In addition, the TGI in the assay with NCI-H460 lung, in the assay with NCI-H226 lung, with PC-3 prostate and with U251 CNS was more than 100 µM throughout.
